Data on four compounds can be found in PMC7035259, “T-13 and T-26, the novel taxanes with improved oral bioavailability in rats” (Scientific Reports, 2020).

Structures are written as SMILES.

Data set [1] can be described thus: Pharmacokinetics after intravenous and oral administration in rats (LC-MS/MS of plasma). The class given is in vivo, male Sprague-Dawley (S.D.) rats. To be noted: oral 60 mg/kg vs intravenous 5 mg/kg, F = (AUCp.o × Dosei.v)/(AUCi.v × Dosep.o) × 100%; for bioavailability: male, Sprague-Dawley, rat, plasma, read-out: F (absolute oral bioavailability). As to the method: For the pharmacokinetic study, male S.D. rats (average weight 300 g) were fasted overnight to prevent coprophagia but allowing free access to water. The rats were randomly divided into four groups (6 animals each). The dosages of taxanes used in the pharmacokinetic study were based on the previously published reports[15]–[17]. For solution, T-13 and T-26 were dissolved in a mixture of Tween 80 and ethanol (50:50, v/v) at 50 mg/mL for intravenous and oral administration, respectively. Group I received the T-13 stock solution diluted with normal saline solution up to 1 mL at a dose of 5 mg/kg for intravenous injection. Group II received T-13 at a dose of 60 mg/kg for oral administration. Group III received the compound T-26 stock solution diluted with normal saline solution up to 1 mL at a dose of 5 mg/kg for intravenous injection. Group IV received T-26 at a dose of 60 mg/kg for oral administration.
Blood samples (~0.20 mL) were collected into heparin coated tubes at 0, 5, 10, 20, 40 min, 1, 2, 4, 6, 8, 12 and 24 h after intravenous injection and 5, 15, 30, 45 min, 1, 2, 4, 6, 8, 12 and 24 h after oral administration. Blood samples were centrifuged at 12,000 rpm for 10 min. The supernatant fractions were transferred into labeled microcentrifuge tubes and stored at −40 °C until LC-MS/MS analysis.
The concentration of T-13 and T-26 were determined in plasma by LC/MS as described above. Calibration curves were used for the conversion of the T-13/Paclitaxel chromatographic area to the concentration. Calibrator and quality control samples were prepared by adding appropriate volumes of standard T-13 or T-26 acetonitrile solution to drug-free plasma. Calibration curves were designed over the range 5–10,000 ng/mL (γ^2 > 0.999). An aliquot (100 μL) of plasma sample was mixed with 100 μL of acetonitrile containing internal standard (PTX, 500 ng/mL), followed by vortex mixing. Then the mixture was added 3 mL of ethyl acetate, followed by vortex gentle agitation for 3 min. […] The supernatant fraction was transferred to auto-sampler vial, and analyzed by HPLC. […]
The pharmacokinetic analysis of concentration-time data obtained after the administration of the compounds T-13 and T-26 were analyzed by a noncompartmental model using Xcalibur® (version 1.3) Software (Thermo Finnigan). The following pharmacokinetic parameters were calculated from the plasma data of Group I and Group III using WinNonlin5.2. Software: total area under the plasma concentration versus time curve, determined by extrapolation from 0 to ∞ after intravenous administration (AUCiv), half-life of the terminal phase (t1/2) and the mean residence time (MRT). Other parameters such as maximum plasma concentration (Cmax) and the time to reach Cmax (Tmax) were also analyzed after oral administration in rats.

For the next data set, the system named is Caco-2 monolayer cells. Set-up: method as in PMID 24332858. To be noted: cited from earlier work.
Another data set concerns the target T1, P-glycoprotein (P-gp) (Homo sapiens, UniProt P08183).
T1 construct: expressed in transfected cells; host or cells: MDCK-MDR1 (Madin-Darby canine kidney cells carrying MDR1); MDCK-WT as control
Nature of the data set: Interaction with P-gp in MDCK-MDR1 and MDCK-WT cell permeability studies. In kind it is in vitro ADME. To be noted: MDCK-MDR1 and MDCK-WT cells; for P-gp substrate activity: with and without a P-gp inhibitor (such as verapamil); for P-gp inhibition: with and without a P-gp substrate (such as digoxin). From the text: In an attempt to increase the solubility of taxoids and develop more safe clinical formulations, we previously synthesized a series of novel taxol analogs by modifying the positions of C7, C10, C14 and C3′, which have improved water solubility and oral bioavailability. […] In order to further evaluate the substrate activity of novel taxol analogs with P-gp and whether they are P-gp inhibitors, T-13 and T-26 were selected based on structural characteristics (with or without 1, 14-carbonate moiety) and cytotoxicity in vitro for evaluation of the interaction with P-gp in Madin-Darby canine kidney (MDCK)-multidrug resistance-1 (MDR1) and MDCK-wild type (WT) cells (a more P-gp specific model)[13],[14] permeability studies, under two sets of conditions: one with and without a P-gp inhibitor (such as verapamil) to look at whether the test compounds were P-gp substrates or not, one with and without a P-gp substrate (such as digoxin) to look at whether the test compounds were P-gp inhibitors or not. […] Therefore, the permeability of the Caco-2 cells was enhanced in vitro.

On the set-up of data set [2]: method as in PMID 23811429. The conditions noted are these: paclitaxel, rats; cited from earlier work.

T1 sequence (P08183 whole entry): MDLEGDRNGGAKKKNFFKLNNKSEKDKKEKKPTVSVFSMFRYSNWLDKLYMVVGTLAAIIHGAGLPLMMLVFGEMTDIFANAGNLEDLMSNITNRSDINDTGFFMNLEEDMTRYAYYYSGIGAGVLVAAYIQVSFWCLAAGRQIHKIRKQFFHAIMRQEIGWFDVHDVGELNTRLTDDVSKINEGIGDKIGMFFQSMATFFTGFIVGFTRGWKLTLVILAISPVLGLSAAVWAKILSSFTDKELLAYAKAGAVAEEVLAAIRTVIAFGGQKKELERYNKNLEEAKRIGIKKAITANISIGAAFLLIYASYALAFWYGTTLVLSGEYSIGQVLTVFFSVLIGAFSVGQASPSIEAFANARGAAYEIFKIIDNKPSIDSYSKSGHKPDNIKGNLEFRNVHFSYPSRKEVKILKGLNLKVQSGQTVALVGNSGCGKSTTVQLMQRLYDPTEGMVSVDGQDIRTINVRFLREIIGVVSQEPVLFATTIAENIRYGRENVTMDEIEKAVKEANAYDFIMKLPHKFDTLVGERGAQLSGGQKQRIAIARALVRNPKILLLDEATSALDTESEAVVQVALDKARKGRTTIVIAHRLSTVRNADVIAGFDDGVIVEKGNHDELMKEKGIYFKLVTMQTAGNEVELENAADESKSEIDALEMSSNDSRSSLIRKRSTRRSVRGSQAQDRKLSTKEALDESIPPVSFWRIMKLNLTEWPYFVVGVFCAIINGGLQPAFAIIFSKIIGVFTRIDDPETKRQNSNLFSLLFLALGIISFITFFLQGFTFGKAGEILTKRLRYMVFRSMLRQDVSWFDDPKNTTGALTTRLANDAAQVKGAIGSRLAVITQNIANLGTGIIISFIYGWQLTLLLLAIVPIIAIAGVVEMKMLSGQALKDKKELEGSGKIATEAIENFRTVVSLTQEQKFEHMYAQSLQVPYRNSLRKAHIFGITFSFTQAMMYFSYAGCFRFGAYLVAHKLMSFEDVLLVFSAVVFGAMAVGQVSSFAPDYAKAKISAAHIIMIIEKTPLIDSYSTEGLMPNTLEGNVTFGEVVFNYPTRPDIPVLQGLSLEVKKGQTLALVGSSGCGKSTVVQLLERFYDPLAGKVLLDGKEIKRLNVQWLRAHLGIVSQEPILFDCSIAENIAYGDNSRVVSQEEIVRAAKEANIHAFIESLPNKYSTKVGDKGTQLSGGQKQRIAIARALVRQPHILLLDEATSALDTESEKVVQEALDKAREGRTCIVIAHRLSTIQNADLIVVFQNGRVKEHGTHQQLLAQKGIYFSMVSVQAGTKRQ

As a reminder, the bioavailability is dose-corrected exposure relative to a reference, in per cent. On to `CO[C@H]1C(=O)[C@]2(C)[C@@H](OC(=O)N(C)C)C[C@H]3OC[C@@]3(OC(C)=O)[C@H]2[C@H](OC(=O)c2ccccc2)[C@]2(O)C[C@H](OC(=O)[C@H](O)[C@@H](NC(=O)OC(C)(C)C)c3ccccc3)C(C)=C1C2(C)C` [Compound T-13], for which, in data set [1], the bioavailability was about 11% and the “F (absolute oral bioavailability)” value worked out at 10.71%. In addition, in the data set with Caco-2 monolayer cells, the efflux ratio entry is given as “less than 2.0” and the “permeability” value is given as “highest permeability”. On P-glycoprotein (P-gp), the “P-gp substrate activity” value is “poor substrates of P-gp” and the “P-gp inhibition” value is reported as “possessed inhibiting effects of P-gp mediated efflux”.

Turning to `CO[C@H]1C(=O)[C@]2(C)[C@@H](OC(=O)N(C)C)C[C@H]3OC[C@@]3(OC(C)=O)[C@H]2[C@H](OC(=O)c2ccccc2)[C@]2(O)C[C@H](OC(=O)[C@H](O)[C@H](CC(C)C)NC(=O)OC(C)(C)C)C(C)=C1C2(C)C` [Compound T-15], in the data set on Caco-2 monolayer cells, the efflux ratio result is listed as “less than 2.0” and the “permeability” value is on record as “highest permeability”.

For the compound `CO[C@H]1C[C@H]2OC[C@@]2(OC(C)=O)[C@H]2[C@H](OC(=O)c3ccccc3)[C@]34OC(=O)O[C@H]3[C@H](OC(=O)[C@H](O)[C@@H](NC(=O)OC(C)(C)C)c3ccccc3)C(C)=C([C@@H](OC(=O)N(C)C)C(=O)[C@]12C)C4(C)C` [Compound T-26], in data set [1], the bioavailability is about 66% and the “F (absolute oral bioavailability)” value is on record as 65.79%. Besides, in the data set on Caco-2 monolayer cells, the efflux ratio result is listed as “less than 2.0” and the “permeability” value is “highest permeability”. For the same compound, at P-glycoprotein (P-gp), the “P-gp substrate activity” value is reported as “poor substrates of P-gp” and the “P-gp inhibition” value is listed as “possessed inhibiting effects of P-gp mediated efflux”.

In the case of `CC(=O)O[C@H]1C(=O)[C@@]2(C)[C@H]([C@H](OC(=O)c3ccccc3)[C@]3(O)C[C@H](OC(=O)[C@H](O)[C@@H](NC(=O)c4ccccc4)c4ccccc4)C(C)=C1C3(C)C)[C@]1(OC(C)=O)CO[C@@H]1C[C@@H]2O` [paclitaxel, Paclitaxel], the oral bioavailability in data set [2] is on record as 5%.
